Measured values from patent US9527894B2, “Polymutant tau protein variants and their use for recapitulating human tauopathies” (Universitaet Leipzig, priority 2011, dated 2016).

Key:
[1] = test system: tau mutant expressing SH-SY5Y cells; test: impedimetric detection of okadaic acid induced artificial hyperphosphorylation; assay type: cell-based, human; conditions: 25 nM
Description: FIG. 4: Impedimetric detection of consequences by okadaic acid induced artificial hyperphosphorylation. […] (n=3, 2D-ANOVA, Bonferoni post-hoc test, *p<0.05, **p<0.01, ***p<0.001)
(§1) Human neuroblastoma SH-SY5Y cells were grown in DMEM medium, supplemented with 15% fetal bovine serum (FBS), non-essential amino acids, glutamax and penicillin/streptomycine (Invitrogen). Differentiation of SH-SY5Y cells was induced by incubation of the SH-SY5Y cells with 20 nM stauropsprin (Sigma-Aldrich) for 48 hours. For the appropriate experiments differentiated cells were treated with okadaic acid (Sigma-Aldrich) in a concentration of 25 nM or in case of reference compound testing with SRN-003-556 and AR-A014418, respectively.
(§2) Cells were cultured on self-developed 96-well arrays comprising a gold electrode at the culture surface. The SH-SY5Y cells were differentiated for 48 hours on the 96-well arrays. Impedance spectra were recorded with a self developed multiplexer unit for the 96-well arrays and an impedance Analyser Agilent 4294A (Agilent Technologies) with an alternating voltage of 10 mV with frequencies from 500 Hz to 5 MHz (0 mV bias between electrodes). For each experiment at least five wells were measured in replicate. All impedance magnitude spectra were analysed with a self-developed software IDAT (Impedance Data Analysing Tool). […]

[2] = test system: MC1-positive (abnormal conformation) tau in SH-SY5Y cell lines; test: Western blot detection of abnormal tau conformation with MC1 antibody; assay type: cell-based, human; conditions: undifferentiated neuroblastoma cell lines
Source text: FIG. 2: Abnormal tau conformation in polymutant tau cell lines. Poly-mutant tau variants were developed and, using those variants, poly-mutant neuroblastoma cell lines were produced. In those cell lines tau adopting an abnormal/pathological conformation under physiological conditions was observed (MC1 abnormal tau). […] Corroborating recent results that phosphorylation may stabilize abnormal conformation the amount of MC1-positive tau species could be decreased by treating the cells with a tau kinase inhibitor (SRN-003-556). […]
Cells were harvested and protease as well as phosphatase inhibitor cocktail (Sigma-Aldrich) was added. Proteins were extracted by sonification (Hielscher GmbH) and protein concentration was determined using the Roti-Nanoquant Assay (Carl-Roth GmbH). Laemmli sample buffer was added to 60 μg cell lysate. Samples were separated on 10% SDS-polyacrylamide gel and electro transferred onto polyvinylidene fluoride membranes and subsequently immunolabeled with anti-MC1 specific antibody (Peter Davis Department of Pathology, Albert Einstein College of Medicine, 1:100) at 4° C. over night. Secondary antibody was horseradish peroxidase conjugated (Dianova, 1:5000). Specific protein signals were detected using Chemiluminescence Detection Kit (MobiTec) and ChemiDoc-XRS (BioRad). […]

[3] = test system: SH-SY5Y cells; test: impedimetric monitoring of differentiated wildtype and poly-mutant tau expressing cells; assay type: cell-based, human; conditions: differentiated 48 h with 20 nM staurosporine, then monitored 24 h; compared to wildtype tau cells
Description: FIG. 5: Differentiation induces neurodegeneration in poly-mutant tau expressing SH-SY5Y cells. Differentiation of SH-SY5Y cells were induced by 48 h incubation with 20 nM staurosporine. Afterwards the cells were impedimetrically monitored for 24 h. […] (n=4, 2D-ANOVA, Bonferoni post-hoc test, *p<0.05, **p<0.01)
as §1
Cells were cultured on self-developed 96-well arrays comprising a gold electrode at the culture surface. The SH-SY5Y cells were differentiated for 48 hours on the 96-well arrays. Impedance spectra were recorded with a self developed multiplexer unit for the 96-well arrays and an impedance Analyser Agilent 4294A (Agilent Technologies) with an alternating voltage of 10 mV with frequencies from 500 Hz to 5 MHz (0 mV bias between electrodes). For each experiment at least five wells were measured in replicate. All impedance magnitude spectra were analysed with a self-developed software IDAT (Impedance Data Analysing Tool). IDAT calculates the impedance of cell-covered electrodes relative to electrodes without cells (relative impedance: (|Z|covered-|Z|cell-free)/|Z|cell-free×100%) and determine the and select the frequency where impedance change caused by the cell layer is maximum (for SH-SY5Y cells on 96-well array at about 100 kHz). […] Experiments were repeated at least three times. […]

[4] = test system: SH-SY5Y neuroblastoma cell lines; test: formation of abnormal tau aggregates after differentiation (EGFP-tau imaging); assay type: cell-based, human; conditions: after induction of differentiation (20 nM staurosporine), without toxic cofactors
Description: FIG. 1: Abnormal tau aggregation in a hyper-mutated tau expressing cell line.
as §1

[5] = test system: Hyper-tau expressing SH-SY5Y cells; test: impedance spectroscopy based functional tau pathology in vitro screening assay (Hyper-tau cells); assay type: cell-based, human
Description: FIG. 6: Use of Hyper-tau cells for quantitative detection of compound efficiency. Taking the developed Hyper-tau cells, where pathology was induced by differentiation (20 nM staurosporine for 48 h) in comparison to the wildtype tau expressing cells (physiological condition) the efficiency of potential active pharmaceutical ingredients could be quantified.
Human neuroblastoma SH-SY5Y cells were grown in DMEM medium, supplemented with 15% fetal bovine serum (FBS), non-essential amino acids, glutamax and penicillin/streptomycine (Invitrogen). Differentiation of SH-SY5Y cells was induced by incubation of the SH-SY5Y cells with 20 nM stauropsprin (Sigma-Aldrich) for 48 hours. […]
as §2, with “The SH-SY5Y cells were differentiated for 48 hours on the 96-well arrays.” left out

[6] = test system: tau hyperphosphorylation; conditions: artificial hyperphosphorylation using toxic compounds like okadaic acid; cited from earlier work
[7] = test system: tauopathy mouse model; conditions: LeCorre et al. 2006, Selenica et al. 2007; cited from earlier work

Compound: C=C1[C@@H](O)[C@@H]2O[C@]3(CC[C@H](/C=C/[C@@H](C)[C@@H]4CC(C)=C[C@@]5(O[C@H](C[C@@](C)(O)C(=O)O)CC[C@H]5O)O4)O3)CC[C@H]2O[C@@H]1[C@@H](O)C[C@H](C)[C@H]1O[C@@]2(CCCCO2)CC[C@H]1C [okadaic acid]
- impedimetric effect of okadaic acid incubation ([1]; 3 h and 6 h): Hyper-tau mutant specific degenerative effect
- impedimetric effect of okadaic acid incubation ([1]; after 24 h): massive cell damage in all tau mutants

Compound: Hyper-tau: 5× polymutant tauK257T/ΔK280/P301L/V337M/R406W, SEQ ID NO:3
- MC1-detected misfolded tau species [2]: abnormally conformed, misfolded tau species
- relative impedance of tau variant expressing cells [3]: still more substantial decrease of relative impedance
- formation of abnormal tau aggregates [4]: formation of abnormal tau aggregates

Compound: K257Tq: 4× polymutant tauK257T/P301L/V337M/R406W
- relative impedance of tau variant expressing cells [3]: lower impedance values

Compound: COc1ccc(CNC(=O)Nc2ncc([N+](=O)[O-])s2)cc1 [AR-A014418]
- side effects detected by impedimetric monitoring ([5]; 6 h and 12 h, 0.1 nM-100 nM): toxic effects
- therapeutic effect on Hyper-tau induced pathology (impedance) ([5]; Hyper-tau cells differentiated with 20 nM staurosporine for 48 h, compared to wildtype tau cells): no therapeutic effect
- therapeutic effect in okadaic acid based tau pathology in vitro assays [6]: therapeutic effect
- therapeutic effect in tauopathy mouse model [7]: does not

Compound: P301L: single mutant tau (P301L)
- relative impedance of tau variant expressing cells [3]: same impedimetric characteristic like the wildtype tau expressing cells
